From ChEMBL document CHEMBL5360530, “Structure activity relationship (SAR) and anticancer activity of pyrrolidine derivatives: Recent developments and future prospects (A review)” (Eur J Med Chem, 2023)
In brackets after ≈: the same amount, converted by molar mass. Square brackets hold non-standard residues; d marks the D form. Peptide text beside a SMILES is read from it. * marks the point of attachment. ξ: configuration not given here. X2 = CC[C@H](C)[C@@H](CN[C@@H](Cc1ccccc1)C(=O)OC)N*; X1 = O=C(OC(C(F)(F)F)C(F)(F)F)*; ξP = O=C(O)C1CCCN1

Legend:
[1] = test system: HCT-116; assay: Anticancer activity against human HCT-116 cells assessed as cell growth inhibition measured after 48 hrs by MTT assay; assay type: functional, cell-based; conditions: HCT-116, 48 h
[2] = test system: HT-29; assay: Anticancer activity against human HT-29 cells assessed as cell growth inhibition measured after 48 hrs by MTT assay; assay type: functional, cell-based; conditions: HT-29, 48 h
[3] = Cytotoxicity against human Adipose tissue derived mesenchymal stem cell assessed as cell growth inhibition measured after 48 hrs by MTT assay; assay type: toxicity, cell-based; conditions: adipose tissue derived mesenchymal stem cells
[4] = test system: A549; assay: Anticancer activity against human A549 cells assessed as cell growth inhibition measured after 72 hrs by CCK-8 assay; assay type: functional, cell-based; conditions: A549, 72 h
[5] = test system: HCT-116; assay: Anticancer activity against human HCT-116 cells assessed as cell growth inhibition measured after 72 hrs by CCK-8 assay; assay type: functional, cell-based; conditions: HCT-116, 72 h
[6] = test system: MDA-MB-231; assay: Anticancer activity against human MDA-MB-231 cells assessed as cell growth inhibition measured after 72 hrs by CCK-8 assay; assay type: functional, cell-based; conditions: MDA-MB-231, 72 h
[7] = test system: SH-SY5Y; assay: Anticancer activity against human SH-SY5Y cells assessed as cell death upto 1000 ug/ml measured upto 72 hrs by MTT assay relative to control; assay type: functional; conditions: dose <= 1000 µg/ml, up to 1000 µg/mL
[8] = test system: HT-29; assay: Anticancer activity against human HT-29 cells assessed as cell death upto 1000 ug/ml measured upto 72 hrs by MTT assay relative to control; assay type: functional; conditions: dose <= 1000 µg/ml, up to 1000 µg/mL
[9] = test system: P388; assay: Anticancer activity against P388 cells assessed as cell growth inhibition; assay type: functional, cell-based; conditions: Mus musculus
[10] = test system: MCF7; assay: Anticancer activity against human MCF7 cells assessed as cell growth inhibition at 50 uM measured after 48 hrs by MTT assay relative to control; assay type: functional
[11] = test system: COS-7; assay: Anticancer activity against COS-7 cells assessed as cell growth inhibition at 50 uM measured after 48 hrs by MTT assay relative to control; assay type: functional; conditions: Chlorocebus aethiops
[12] = test system: A549; assay: Anticancer activity against human A549 cells assessed as cell growth inhibition measured after 24 hrs by MTT assay; assay type: functional, cell-based; conditions: A549, 24 h
[13] = test system: A549; assay: Anticancer activity against human A549 cells assessed as cell growth inhibition by MTT assay; assay type: functional, cell-based
[14] = test system: Jurkat; assay: Anticancer activity against human Jurkat cells assessed as cell growth inhibition measured after 48 hrs by MTT assay; assay type: functional, cell-based
[15] = test system: MCF7; assay: Anticancer activity against human MCF7 cells assessed as cell growth inhibition by MTT assay; assay type: functional, cell-based
[16] = test system: MCF7; assay: Anticancer activity against human MCF7 cells assessed as cell growth inhibition measured after 48 hrs by MTT assay; assay type: functional, cell-based; conditions: MCF7, 48 h
[17] = test system: K562; assay: Anticancer activity against human K562 cells assessed as cell growth inhibition measured after 48 hrs by MTT assay; assay type: functional, cell-based; conditions: K562, 48 h
[18] = test system: HT-29; assay: Anticancer activity against human HT-29 cells xenografted with BALB/c mouse assessed as tumor growth inhibition at 50 mg/kg, iv measured twice daily for 20 days relative to control; assay type: functional; conditions: HT-29, 480 h, time 20 day, read-out: TGI
[19] = test system: HT-29; assay: Anticancer activity against human HT-29 cells xenografted with BALB/c mouse assessed as tumor growth inhibition at 50 mg/kg, po measured twice daily for 20 days relative to control; assay type: functional; conditions: HT-29, 480 h, time 20 day, read-out: TGI
[20] = test system: MCF7; assay: Anticancer activity against human MCF7 cells assessed as cell growth inhibition measured after 48 hrs by WST-1 assay; assay type: functional, cell-based; conditions: MCF7, 48 h
[21] = test system: K562; assay: Anticancer activity against human K562 cells assessed as cell growth inhibition measured after 48 hrs by WST-1 assay; assay type: functional, cell-based; conditions: K562, 48 h
[22] = test system: M-HeLa; assay: Anticancer activity against human HelaM cells assessed as cell growth inhibition measured after 24 hrs by DAPI and propidium iodide staining based assay; assay type: functional
[23] = Cytotoxicity against human Chang liver cells assessed as cell growth inhibition measured after 24 hrs by DAPI and propidium iodide staining based assay; assay type: toxicity
[24] = test system: M-HeLa; assay: Induction of apoptosis in human HelaM cells upto 100 uM measured after 24 hrs relative to control; assay type: functional; conditions: up to 100 µM
[25] = test system: A549; assay: Anticancer activity against human A549 cells assessed as cell viability at 100 ug/ml measured after 24 hrs by MTT assay relative to control; assay type: functional; conditions: read-out: Activity
[26] = test system: A549; assay: Anticancer activity against human A549 cells assessed as cell viability at 50 ug/ml measured after 24 hrs by MTT assay relative to control; assay type: functional; conditions: read-out: Activity
[27] = test system: A549; assay: Anticancer activity against human A549 cells assessed as cell viability measured after 24 hrs by MTT assay; assay type: functional, cell-based; conditions: A549, 24 h
[28] = test system: HeLa; assay: Anticancer activity against human HeLa cells assessed as cell growth inhibition measured after 48 hrs by MTT assay; assay type: functional, cell-based
[29] = test system: MCF7; assay: Anticancer activity against human MCF7 cells assessed as cell growth inhibition measured after 24 hrs by SRB assay; assay type: functional, cell-based; conditions: MCF7, 24 h
[30] = test system: HCT-116; assay: Anticancer activity against human HCT-116 cells assessed as cell growth inhibition measured after 24 hrs by SRB assay; assay type: functional, cell-based; conditions: HCT-116, 24 h
[31] = test system: HepG2; assay: Anticancer activity against human HepG2 cells assessed as cell growth inhibition measured after 24 hrs by SRB assay; assay type: functional, cell-based; conditions: HepG2, 24 h
[32] = test system: HT-29; assay: Anticancer activity against human HT-29 cells assessed as cell growth inhibition measured after 24 hrs by MTT assay; assay type: functional, cell-based; conditions: HT-29, 24 h

For `O=C1CCC(=O)N1c1ccc(O)cc1`, the IC50 [1] was 1.74 µM, the IC50 [2] was 1.03 µM and the IC50 at 48 h [3] was 1.32 µM.
Work on `OC(CN1CCCCC1)Cn1c2ccc(Cl)cc2c2cc(Cl)ccc21` (configuration not stated) yielded an IC50 [4] of 6 µM, an IC50 [5] of 6 µM and an IC50 [6] of 6 µM.
`CCn1c2ccccc2c2cc(NC(=O)CCN3CCCC3)ccc21` gave an Activity [7] of 61% and an Activity [8] of 66%.
Work on `O=C(/C=C/c1ccc(O)cc1)N1CCCC1` yielded an IC50 [9] of 11.3 µg/mL (≈ 52.2 µM).
Molecule `CCCCNCC(O)Cn1c2ccc(Cl)cc2c2cc(Cl)ccc21` (configuration not stated) has an IC50 [4] of 6 µM, an IC50 [5] of 6.5 µM and an IC50 [6] of 7.5 µM.
In the case of `O=C1Nc2ccccc2C12CCNC2c1ccccc1` (configuration not stated), the inhibition at 50 µM [10] is reported as 25.2% and the inhibition at 50 µM [11] is reported as 0.51%.
Work on `COc1ccc([C@@H]2[C@H]([N+](=O)[O-])[C@H](Cc3ccc(O)cc3)NC23C(=O)c2cccc4cccc3c24)cc1` (some centres not stated) yielded an IC50 [12] of 96.5 µM.
`CCOC(=O)[C@H]1CCCN1C(=O)Cc1noc2ccccc12` showed an IC50 [13] of 361 µM.
With `O=C1C2=CC=CC3C=CC=C(C23)C12N[C@@H](Cc1ccc(O)cc1)[C@@H]([N+](=O)[O-])[C@H]2c1ccc(Br)cc1` (some centres not stated) the IC50 [12] was 65.7 µM and the IC50 [14] was 33.1 µM.
`N#C[C@@H]1CCCN1C(=O)Cc1noc2ccccc12` showed an IC50 [13] of 90.3 µM and an IC50 [15] of 2.36 µM.
For `Cc1ccc(C2CC(c3ccc(F)cc3)=NN2C(=O)CN2C(=O)CCC2=O)cc1` (configuration not stated), the IC50 [16] was 0.07 µM, the IC50 [2] was 0.92 µM and the IC50 [17] was 47.2 µM. The inhibition in vivo at 50 mg/kg [18] was 66% and the inhibition in vivo at 50 mg/kg [19] was 60%.
`NC(=O)[C@@H]1CCCN1C(=O)Cc1noc2ccccc12` showed an IC50 [13] of 4.72 µM and an IC50 [15] of 4.39 µM.
`O=C1/C(=C/c2cccc(F)c2)CCC[C@]12[C@@H](c1cccc(F)c1)[C@@H]1CSCN1[C@]21C(=O)Nc2ccccc21` showed an IC50 [20] of 15.3 µM and an IC50 [21] of 15.7 µM.
With `O=C1C2=CC=CC3C=CC=C(C23)C12N[C@@H](Cc1ccc(O)cc1)[C@@H]([N+](=O)[O-])[C@H]2c1ccc(Cl)cc1` (some centres not stated) the IC50 [12] was 40.2 µM and the IC50 [14] was 33.6 µM.
For `Oc1cc2c(cc1C1CCCCC1)OCO2`, the IC50 [22] was 14.7 µM, the IC50 at 24 h [23] was > 100 µM and the Activity [24] was 25%.
With `O=C1CCC(=O)N1CN(Cc1ccccc1)Cc1ccccc1` the viability at 100 µg/mL [25] was 72%, the viability at 50 µg/mL [26] was 78.8% and the IC50 [27] was 176 µg/mL (≈ 572 µM).
Molecule `O=C(/C=C/c1ccc(O)c(O)c1)N1CCCC1` has an IC50 [9] of 53.5 µg/mL (≈ 229 µM).
Molecule `CC[C@H](C)[C@H](NC(=O)OC(C(F)(F)F)C(F)(F)F)C(=O)N[C@@H](CC(C)C)C(=O)N1CCCC1C(=O)N[C@@H](CC(C)C)C(=O)N[C@H](C(=O)OC)C(C)C` (some centres not stated) (X1-IL[ξP]LV-OMe) has an IC50 [28] of 2.73 µM.
With `CC[C@H](C)[C@@H](CN[C@@H](Cc1ccccc1)C(=O)OC)NC(=O)[C@@H]1CCCN1C(=O)[C@H](CC(C)C)NC(=O)[C@@H]1CCCN1C(=O)[C@H](CC(C)C)NC(=O)OC(C(F)(F)F)C(F)(F)F` (X1-LPLP-X2) the IC50 [28] was 4.3 µM.
Work on `COc1cccc2c1C(=O)c1c(O)c3c(c(O)c1C2=O)C[C@@](O)(C(=O)CO)C[C@@H]3O[C@H]1C[C@H](N)[C@H](O)[C@H](C)O1` [DOXORUBICIN] yielded an IC50 [29] of 4.89 µM, an IC50 [30] of 7.03 µM and an IC50 [31] of 5.59 µM.
For `O=c1[nH]cc(F)c(=O)[nH]1` [FLUOROURACIL], the IC50 [16] was 45 µM, the IC50 [20] was 78.3 µM and the IC50 [32] was 80.6 µM. For the same molecule, the IC50 [15] was 45 µM.
